In patent publication US10357493B2, “Metalloenzyme inhibitor compounds” (Selenity Therapeutics (Bermuda), Ltd., priority 2017, dated 2019):

How the values were obtained:
[1] = molecular target: HDAC1 (Homo sapiens (Human), UniProt Q13547); assay: HDAC1 enzymatic assay; format: biochemical; conditions: read-out: Human HDAC1 IC50
Procedure, shortened: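 HDAC1 activity was measured in duplicate 50 μl reactions containing 0.5 ng HDAC1, 10 uM of HDAC substrate, and test compound in buffer (50 mM Tris-HCl, pH 7.4, 137 mM NaCl, 2.7 mM KCl, 0.05% Tween 20, 5 μg BSA) with 1% DMSO, incubated 17 hours at room temperature. HDAC Developer was then added for 20 minutes and fluorescence read at 360/460 nm.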

[2] = molecular target: HDAC6 (Homo sapiens (Human), UniProt Q9UBN7); assay: HDAC6 enzymatic assay; format: biochemical; conditions: read-out: Human HDAC6 IC50
Procedure, shortened: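 Human HDAC6 activity was measured in duplicate 50 μl reactions holding 2 ng HDAC6, 10 uM of HDAC substrate and test compound in HDAC assay buffer (50 mM Tris-HCl, pH 7.4, 137 mM NaCl, 2.7 mM KCl, 0.05% Tween 20, 5 μg BSA) with 1% DMSO, for 17 hours at room temperature. HDAC Developer was added for 20 minutes before reading fluorescence at 360/460 nm.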

Chain of HDAC6 (Q9UBN7 whole entry): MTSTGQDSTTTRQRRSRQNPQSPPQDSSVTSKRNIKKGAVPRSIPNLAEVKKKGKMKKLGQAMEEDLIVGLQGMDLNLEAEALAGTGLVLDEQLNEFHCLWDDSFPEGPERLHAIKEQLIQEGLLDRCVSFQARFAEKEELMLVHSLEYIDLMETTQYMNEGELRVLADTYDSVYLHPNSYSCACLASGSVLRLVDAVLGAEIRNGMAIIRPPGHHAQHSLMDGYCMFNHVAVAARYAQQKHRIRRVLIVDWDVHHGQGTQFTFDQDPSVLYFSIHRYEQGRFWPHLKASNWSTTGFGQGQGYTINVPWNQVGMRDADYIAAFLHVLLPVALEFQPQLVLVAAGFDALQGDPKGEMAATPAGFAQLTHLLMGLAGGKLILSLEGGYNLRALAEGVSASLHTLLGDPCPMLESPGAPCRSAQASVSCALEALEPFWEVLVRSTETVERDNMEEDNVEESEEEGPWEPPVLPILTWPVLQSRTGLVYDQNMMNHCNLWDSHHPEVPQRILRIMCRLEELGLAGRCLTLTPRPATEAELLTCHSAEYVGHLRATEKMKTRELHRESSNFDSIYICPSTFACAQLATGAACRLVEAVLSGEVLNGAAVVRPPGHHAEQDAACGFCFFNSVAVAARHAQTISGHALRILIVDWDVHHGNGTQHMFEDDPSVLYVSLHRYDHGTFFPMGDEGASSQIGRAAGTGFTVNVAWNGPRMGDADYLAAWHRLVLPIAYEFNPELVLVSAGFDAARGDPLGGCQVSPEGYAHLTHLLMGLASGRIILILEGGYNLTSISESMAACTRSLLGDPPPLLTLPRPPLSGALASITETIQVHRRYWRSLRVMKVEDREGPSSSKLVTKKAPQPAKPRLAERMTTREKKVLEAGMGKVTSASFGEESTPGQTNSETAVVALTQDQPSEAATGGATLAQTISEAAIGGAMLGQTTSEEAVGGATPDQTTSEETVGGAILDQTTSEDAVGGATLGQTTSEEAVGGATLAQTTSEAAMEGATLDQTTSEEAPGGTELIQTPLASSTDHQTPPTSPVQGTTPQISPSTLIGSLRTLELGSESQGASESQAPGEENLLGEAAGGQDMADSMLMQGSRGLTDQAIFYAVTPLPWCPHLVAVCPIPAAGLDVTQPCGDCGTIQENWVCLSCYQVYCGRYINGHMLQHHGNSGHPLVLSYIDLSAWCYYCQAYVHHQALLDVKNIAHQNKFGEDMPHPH
Chain of HDAC1 (Q13547 whole entry): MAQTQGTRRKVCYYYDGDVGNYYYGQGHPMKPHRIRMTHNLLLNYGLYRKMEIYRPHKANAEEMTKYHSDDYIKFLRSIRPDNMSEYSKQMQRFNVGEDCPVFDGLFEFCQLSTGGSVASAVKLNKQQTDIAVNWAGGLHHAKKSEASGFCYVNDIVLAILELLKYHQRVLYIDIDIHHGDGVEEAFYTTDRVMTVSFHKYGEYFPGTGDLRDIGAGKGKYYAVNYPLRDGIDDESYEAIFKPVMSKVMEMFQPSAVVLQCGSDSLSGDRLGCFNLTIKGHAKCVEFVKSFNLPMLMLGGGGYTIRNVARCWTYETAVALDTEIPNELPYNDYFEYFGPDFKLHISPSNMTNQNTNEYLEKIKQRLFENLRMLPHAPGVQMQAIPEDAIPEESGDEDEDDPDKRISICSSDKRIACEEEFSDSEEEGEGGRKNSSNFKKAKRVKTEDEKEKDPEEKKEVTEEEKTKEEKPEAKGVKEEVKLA

SMILES | IC50 [1] [µM] | IC50 [2] [nM]
Fc1ccc(C(Nc2ncc(-c3nnc(C(F)F)o3)cn2)C(F)(F)F)cc1 (centres unmarked) [Example 15, 5-(5-(difluoromethyl)-1,3,4-oxadiazol-2-yl)-N-(2,2,2-trifluoro-1-(4-fluorophenyl)ethyl)pyrimidin-2-amine] | > 30 | 74
Fc1ccc(-c2ccc(C3(Nc4ncc(-c5nnc(C(F)F)o5)cn4)CC3)cc2)cc1 [Example 16, 5-(5-(difluoromethyl)-1,3,4-oxadiazol-2-yl)-N-(1-(4′-fluoro-[1,1′-biphenyl]-4-yl)cyclopropyl) pyrimidin-2-amine] | > 30 | 95
Fc1ccc(C2(Nc3ncc(-c4nnc(C(F)F)o4)cn3)CCN(c3ccccc3)CC2)cc1 [Example 17, 5-(5-(difluoromethyl)-1,3,4-oxadiazol-2-yl)-N-(4-(4-fluorophenyl)-1-phenylpiperidin-4-yl)pyrimidin-2-amine] | > 30 | 160
Fc1ccc(-c2cccc(C3(Nc4ncc(-c5nnc(C(F)F)o5)cn4)CC3)c2)cc1 [Example 18, 5-(5-(difluoromethyl)-1,3,4-oxadiazol-2-yl)-N-(1-(4′-fluoro-[1,1′-biphenyl]-3-yl)cyclopropyl)pyrimidin-2-amine] | > 30 | 58
Fc1ccc(C(COc2ccccc2)Nc2ncc(-c3nnc(C(F)F)o3)cn2)cc1 (centres unmarked) [Example 19, 5-(5-(difluoromethyl)-1,3,4-oxadiazol-2-yl)-N-(1-(4-fluorophenyl)-2-phenoxyethyl)pyrimidin-2-amine] | > 30 | 47
CC(Nc1ncc(-c2nnc(C(F)F)o2)cn1)c1ccc(F)cc1 (centres unmarked) [Example 20, 5-(5-(difluoromethyl)-1,3,4-oxadiazol-2-yl)-N-(1-(4-fluorophenyl)ethyl)pyrimidin-2-amine] | > 30 | 33
COCC(Nc1ncc(-c2nnc(C(F)F)o2)cn1)c1ccc(F)cc1 (centres unmarked) [Example 21, 5-(5-(difluoromethyl)-1,3,4-oxadiazol-2-yl)-N-(1-(4-fluorophenyl)-2-methoxyethyl)pyrimidin-2-amine] | > 30 | 77
CCC(Nc1ncc(-c2nnc(C(F)F)o2)cn1)c1ccc(F)cc1 (centres unmarked) [Example 22, 5-(5-(difluoromethyl)-1,3,4-oxadiazol-2-yl)-N-(1-(4-fluorophenyl)propyl)pyrimidin-2-amine] | > 30 | 71
CCCC(Nc1ncc(-c2nnc(C(F)F)o2)cn1)c1ccc(F)cc1 (centres unmarked) [Example 23, 5-(5-(difluoromethyl)-1,3,4-oxadiazol-2-yl)-N-(1-(4-fluorophenyl)butyl)pyrimidin-2-amine] | > 30 | 100
CC(C)C(Nc1ncc(-c2nnc(C(F)F)o2)cn1)c1ccc(F)cc1 (centres unmarked) [Example 24, 5-(5-(difluoromethyl)-1,3,4-oxadiazol-2-yl)-N-(1-(4-fluorophenyl)-2-methylpropyl)pyrimidin-2-amine] | > 30 | 95
N#Cc1ccc(C2(Nc3ncc(-c4nnc(C(F)F)o4)cn3)CC2)cn1 [Example 25, 5-(1-((5-(5-(difluoromethyl)-1,3,4-oxadiazol-2-yl)pyrimidin-2-yl)amino)cyclopropyl)picolinonitrile] | > 30 | > 1000
CC(=O)N1CCC(Nc2ncc(-c3nnc(C(F)F)o3)cn2)(c2ccc(F)cc2)CC1 [Example 26, 1-(4-((5-(5-(difluoromethyl)-1,3,4-oxadiazol-2-yl)pyrimidin-2-yl)amino)-4-(4-fluorophenyl)piperidin-1-yl)ethan-1-one] | > 30 | 140
FC(F)c1nnc(-c2cnc(NC3(C4CCCCC4)CC3)nc2)o1 [Example 27, N-(1-cyclohexylcyclopropyl)-5-(5-(difluoromethyl)-1,3,4-oxadiazol-2-yl)pyrimidin-2-amine] | > 30 | 74

Next, values leading:

IC50 [1] [µM] | IC50 [2] [nM] | SMILES
> 30 | 610 | CC(C)C1(Nc2ncc(-c3nnc(C(F)F)o3)cn2)CC1 [Example 28, 5-(5-(difluoromethyl)-1,3,4-oxadiazol-2-yl)-N-(1-isopropylcyclopropyl)pyrimidin-2-amine]
> 30 | 450 | Fc1ccc2c(c1)CCC2Nc1ncc(-c2nnc(C(F)F)o2)cn1 (centres unmarked) [Example 29, 5-(5-(difluoromethyl)-1,3,4-oxadiazol-2-yl)-N-(5-fluoro-2,3-dihydro-1H-inden-1-yl)pyrimidin-2-amine]
> 30 | 770 | O=C(C(Nc1ncc(-c2nnc(C(F)F)o2)cn1)c1ccc(F)cc1)N1CCOCC1 (centres unmarked) [Example 30, 2-((5-(5-(difluoromethyl)-1,3,4-oxadiazol-2-yl)pyrimidin-2-yl)amino)-2-(4-fluorophenyl)-1-morpholinoethan-1-one]
> 30 | 120 | CC(Nc1ncc(-c2nnc(C(F)F)o2)cn1)c1ccc(F)cn1 (centres unmarked) [Example 31, 5-(5-(difluoromethyl)-1,3,4-oxadiazol-2-yl)-N-(1-(5-fluoropyridin-2-yl)ethyl)pyrimidin-2-amine]
> 30 | 59 | FC(F)Oc1ccc(C2(Nc3ncc(-c4nnc(C(F)F)o4)cn3)CC2)cc1 [Example 32, N-(1-(4-(difluoromethoxy)phenyl)cyclopropyl)-5-(5-(difluoromethyl)-1,3,4-oxadiazol-2-yl)pyrimidin-2-amine]
> 30 | 29 | Fc1cc(OC(F)F)ccc1C1(Nc2ncc(-c3nnc(C(F)F)o3)cn2)CC1 [Example 33, N-(1-(4-(difluoromethoxy)-2-fluorophenyl)cyclopropyl)-5-(5-(difluoromethyl)-1,3,4-oxadiazol-2-yl)pyrimidin-2-amine]
> 30 | 790 | Fc1ccc2c(c1)CCCC2Nc1ncc(-c2nnc(C(F)F)o2)cn1 (centres unmarked) [Example 34, 5-(5-(difluoromethyl)-1,3,4-oxadiazol-2-yl)-N-(6-fluoro-1,2,3,4-tetrahydronaphthalen-1-yl)pyrimidin-2-amine]
> 30 | 170 | O=C(Nc1ccccc1)C(Nc1ncc(-c2nnc(C(F)F)o2)cn1)c1ccc(F)cc1 (centres unmarked) [Example 35, 2-((5-(5-(difluoromethyl)-1,3,4-oxadiazol-2-yl)pyrimidin-2-yl)amino)-2-(4-fluorophenyl)-N-phenylacetamide]
> 30 | 64 | Fc1ccc(C(Nc2ncc(-c3nnc(C(F)F)o3)cn2)C2CC2)cc1 (centres unmarked) [Example 36, N-(cyclopropyl(4-fluorophenyl)methyl)-5-(5-(difluoromethyl)-1,3,4-oxadiazol-2-yl)pyrimidin-2-amine]
> 30 | 180 | Fc1ccc(C2(Nc3ncc(-c4nnc(C(F)F)o4)cn3)CCC(F)(F)CC2)cc1 [Example 37, N-(4,4-difluoro-1-(4-fluorophenyl)cyclohexyl)-5-(5-(difluoromethyl)-1,3,4-oxadiazol-2-yl)pyrimidin-2-amine]
> 30 | 29 | CS(=O)(=O)NCC(Nc1ncc(-c2nnc(C(F)F)o2)cn1)c1ccc(F)cc1 (centres unmarked) [Example 38, N-(2-((5-(5-(difluoromethyl)-1,3,4-oxadiazol-2-yl)pyrimidin-2-yl)amino)-2-(4-fluorophenyl)ethyl)methanesulfonamide]
> 30 | 50 | O=S(=O)(NCC(Nc1ncc(-c2nnc(C(F)F)o2)cn1)c1ccc(F)cc1)c1ccccc1 (centres unmarked) [Example 39, N-(2-((5-(5-(difluoromethyl)-1,3,4-oxadiazol-2-yl)pyrimidin-2-yl)amino)-2-(4-fluorophenyl)ethyl)benzenesulfonamide]
